Data on 45 molecules can be found in ChEMBL document CHEMBL3779873, “Rubrolide analogues and their derived lactams as potential anticancer agents” (Medchemcomm, 2016).

Each structure is given as a SMILES string. Values after ≈ are worked out from the molar mass of the structure shown.

Test [1] in a line: Cytotoxicity against human HCT116 cells assessed as reduction in cell viability at 25 ug/mL after 72 hrs by MTT assay. In kind it is functional, HCT-116. Background: Tetrazolium dyes change colour on reduction, which living cells bring about.
Test [2] in a line: Cytotoxicity against human OVCAR8 cells assessed as reduction in cell viability at 25 ug/mL after 72 hrs by MTT assay. The class given is functional, OVCAR-8.
Test [3] is described as follows: Cytotoxicity against human SF295 cells assessed as reduction in cell viability at 25 ug/mL after 72 hrs by MTT assay. In kind it is functional, SF-295.
A short description of test [4]: Cytotoxicity against human OVCAR8 cells after 72 hrs by MTT assay. In kind it is functional, OVCAR-8.
Test [5] in a line: Cytotoxicity against human SF295 cells after 72 hrs by MTT assay. In kind it is functional, SF-295.
Test [6] can be described thus: Cytotoxicity against human HCT116 cells after 72 hrs by MTT assay. The class given is functional, HCT-116.
Test [7] in a line: Cytotoxicity against human HL60 cells after 72 hrs by MTT assay. The class given is functional, HL-60.
Test [8] relates to HT-29. As to the kind of experiment: Cytotoxicity against human HT-29 cells. In kind it is functional. The conditions noted are these: read-out: ED50 (the source's name).

Turning to `O=C1O/C(=C\c2ccc(Cl)cc2)C(Cl)=C1Cl`, the Activity in test [1] is on record as 95.81%; in test [2], 0%; in test [3], 48.84%.

As for `COc1ccc(Cl)cc1C1=C(Br)C(=O)O/C1=C\c1ccc([N+](=O)[O-])cc1`, the Activity in test [1] worked out at 92.2%; in test [2], 53.71%; in test [3], 82.86%.

As for `O=C1O/C(=C\c2ccc([N+](=O)[O-])cc2)C(Cl)=C1Cl`, the results for the Activity in test [1], in test [2] and in test [3] were 93.05%, 98.2% and 84.12%, respectively. The RC50 stood at 9.51 µM in test [4], 29.37 µM in test [5], 22.76 µM in test [6] and 8.98 µM in test [7].

On to `COc1ccc(Br)cc1-c1c(Cc2ccc(F)cc2)n[nH]c(=O)c1Br`, for which the values for the Activity in test [1], in test [2] and in test [3] were 59.8%, 29.08% and 48.14%, respectively.

Turning to `COc1ccc(Br)cc1C1=C(Br)C(=O)N(CC(C)C)/C1=C\c1ccc(Br)cc1`, the Activity in test [1] amounted to 44.22%; in test [2], 25.49%; in test [3], 30.25%.

Take `COc1ccc(Br)cc1C1=C(Br)C(=O)N(CC(C)C)/C1=C/c1ccc(Br)cc1`: the Activity in test [1] is reported as 97.98%; in test [2], 90.66%; in test [3], 53.77%.

Consider `COc1ccc(Br)cc1C1=C(Br)C(=O)O/C1=C\c1ccccc1Cl`, for which the values for the Activity in test [1], in test [2] and in test [3] were 74.4%, 57.61% and 49.4%, respectively.

Consider `COc1ccc(Br)cc1-c1c(Cc2ccccc2Cl)n[nH]c(=O)c1Br`, for which the Activity worked out at 38.1% in test [1], 27.93% in test [2] and 47.29% in test [3].

As to `COc1ccc(Br)cc1-c1c(Cc2ccc(C(F)(F)F)cc2)n[nH]c(=O)c1Br`, the Activity in test [1] is reported as 98.03%; in test [2], 46.18%; in test [3], 74.92%.

As for `CCCN1C(=O)C(Cl)=C(Cl)C1(O)Cc1ccc(F)cc1` (stereo unspecified), the Activity is 25.82% in test [1], 9.25% in test [2] and 10.95% in test [3].

For `COc1ccc(Br)cc1C1=C(Br)C(=O)N(CC(C)C)/C1=C\c1cccc(Cl)c1`, the Activity is reported as 86.98% in test [1], 52.15% in test [2] and 72.36% in test [3].

With `COc1ccc(Cl)cc1C1=C(Br)C(=O)O/C1=C\c1ccc(C(F)(F)F)cc1`, the Activity in test [1] is given as 91.81%; in test [2] it was 96.84%; in test [3], 80.1%. The RC50 in test [4] came out at 7.51 µM; in test [5], 14.12 µM; in test [6], 12.66 µM; in test [7], 5.5 µM.

Take `COc1ccc(Cl)cc1-c1c(Cc2cccc([N+](=O)[O-])c2)n[nH]c(=O)c1Br`: the Activity in test [1] came out at 31.84%; in test [2], 37.42%; in test [3], 47.34%.

As for `CC(C)CN1C(=O)C(Cl)=C(Cl)C1(O)Cc1ccc(Br)cc1` (stereo unspecified), the Activity is 49.89% in test [1], 13.42% in test [2] and 42.06% in test [3].

With `COc1cccc(/C=C2\C(c3cc(Cl)ccc3OC)=C(Br)C(=O)N2CC(C)C)c1`, the Activity in test [1] was found to be 75.51%; in test [2], 55.28%; in test [3] it was 79.36%.

For `CCCN1C(=O)C(Cl)=C(Cl)/C1=C\c1ccc(F)cc1`, the Activity was 64.83% in test [1], 99.07% in test [2] and 97.74% in test [3].

For the molecule `COc1cccc(/C=C2/C(c3cc(Cl)ccc3OC)=C(Br)C(=O)N2CC(C)C)c1`, the Activity in test [1] came out at 38.65%; in test [2], 42.28%; in test [3], 25.57%.

For the molecule `COc1ccccc1C1=C(Br)C(=O)N(CC(C)C)/C1=C\c1ccc(C(F)(F)F)cc1`, the figures for the Activity in test [1], in test [2] and in test [3] were 79.09%, 47.91% and 51.01%, respectively.

Regarding `COc1ccc(Cl)cc1C1=C(Br)C(=O)O/C1=C\c1ccc(F)cc1`, the Activity in test [1] turned out to be 55.49%; in test [2], 32.6%; in test [3] it was 84.72%.

Take `COc1ccc(Br)cc1C1=C(Br)C(=O)N(CC(C)C)C1(O)Cc1cccc(Cl)c1` (stereo unspecified): the results for the Activity in test [1], in test [2] and in test [3] were 92.75%, 98.49% and 78.09%, respectively.

`O=C1O/C(=C\c2ccccc2Br)C(Cl)=C1Cl`: the Activity in test [1] is 97.58%; in test [2], 93.14%; in test [3] it was 92.81%. Also, the RC50 in test [4] turned out to be 11.64 µM; in test [5], 32.64 µM; in test [6], 32.22 µM; in test [7] it was 10.01 µM.

As for `COc1ccc(C)cc1C1=C(Br)C(=O)N(CC(C)C)/C1=C/c1ccccc1Cl`, the Activity in test [1] came out at 19.23%; in test [2] it was 34.8%; in test [3], 6.91%.

For the molecule `COc1ccccc1C1=C(Br)C(=O)N(CC(C)C)C1(O)Cc1ccc(C(F)(F)F)cc1` (stereo unspecified), the Activity in test [1] is 78.84%; in test [2], 21.61%; in test [3], 67.94%.

Consider `COc1ccc(Br)cc1C1=C(Br)C(=O)O/C1=C\c1ccc(Br)cc1`, for which the figures for the Activity in test [1], in test [2] and in test [3] were 97.53%, 98.28% and 75.68%, respectively.

Consider `O=C1O/C(=C\c2ccc(F)cc2)C(Cl)=C1Cl`, for which the figures for the Activity in test [1], in test [2] and in test [3] were 97.68%, 98.99% and 68.44%, respectively.

Consider `COc1ccc(Br)cc1C1=C(Br)C(=O)O/C1=C\c1ccc(F)cc1`, for which the values for the Activity in test [1], in test [2] and in test [3] were 94.87%, 94.68% and 82.06%, respectively. Further, the RC50 in test [4] came out at 5.17 µM; in test [5] it was 15.44 µM; in test [6], 13.06 µM; in test [7], 9.8 µM.

`COc1ccc(C)cc1C1=C(Br)C(=O)O/C1=C\c1ccccc1Cl`: the Activity in test [1] was found to be 35.84%; in test [2] it was 26.18%; in test [3] it was 2.02%.

As for `CC(C)CN1C(=O)C(Cl)=C(Cl)/C1=C/c1ccc(Br)cc1`, the figures for the Activity in test [1], in test [2] and in test [3] were 97.93%, 54.45% and 48.29%, respectively.

For `COc1cccc(CC2(O)C(c3cc(Cl)ccc3OC)=C(Br)C(=O)N2CC(C)C)c1` (stereo unspecified), the values for the Activity in test [1], in test [2] and in test [3] were 67.25%, 27% and 69.2%, respectively.

Turning to `COc1ccccc1C1=C(Br)C(=O)O/C1=C\c1ccc(C(F)(F)F)cc1`, the Activity in test [1] is 84.46%; in test [2], 98.85%; in test [3], 71.31%.

For the molecule `O=C1O/C(=C\c2ccc3c(c2)OCO3)C(Cl)=C1Cl`, the Activity in test [1] was determined as 53.64%; in test [2], 94.9%; in test [3], 87.84%.

Regarding `COc1cccc(Cc2n[nH]c(=O)c(Br)c2-c2cc(Br)ccc2OC)c1`, the values for the Activity in test [1], in test [2] and in test [3] were 10.78%, 10.69% and 30.95%, respectively.

With `COc1ccc(Br)cc1C1=C(Br)C(=O)N(CC(C)C)/C1=C/c1cccc(Cl)c1`, the Activity amounted to 93.44% in test [1], 93.39% in test [2] and 90.65% in test [3]. Further, the RC50 stood at 4.18 µM in test [4], 8.03 µM in test [5], 5.52 µM in test [6] and 3.46 µM in test [7].

`COc1ccc(Br)cc1C1=C(Br)C(=O)N(CC(C)C)C1(O)Cc1ccc(Br)cc1` (stereo unspecified): the Activity in test [1] is listed as 82.39%; in test [2] it was 32.1%; in test [3] it was 56.18%.

On to `COc1ccc(Cl)cc1-c1c(Cc2ccc(F)cc2)n[nH]c(=O)c1Br`, for which the Activity amounted to 14.71% in test [1], 42.17% in test [2] and 18.95% in test [3].

Regarding `COc1ccccc1C1=C(Br)C(=O)N(CC(C)C)/C1=C/c1ccc(C(F)(F)F)cc1`, the Activity in test [1] was found to be 88.8%; in test [2], 75.07%; in test [3], 84.72%.

With `COc1cccc(/C=C2\OC(=O)C(Br)=C2c2cc(Cl)ccc2OC)c1`, the Activity in test [1] turned out to be 97.09%; in test [2], 97.92%; in test [3], 48.09%.

Take `CC(C)CN1C(=O)C(Cl)=C(Cl)/C1=C\c1ccc(Br)cc1`: the Activity in test [1] amounted to 57.48%; in test [2], 52.94%; in test [3], 58.59%.

In the case of `COc1ccc(Cl)cc1-c1c(Cc2ccc(C(F)(F)F)cc2)n[nH]c(=O)c1Br`, the Activity in test [1] turned out to be 97.73%; in test [2], 53.87%; in test [3] it was 73.87%.

Regarding `O=C1O/C(=C\c2ccc(O)c(Br)c2)C(c2ccc(O)cc2)=C1Cl`, in test [8], the EC50 is 1.2 µg/mL (≈ 3.05 µM).

For `O=C1O/C(=C\c2ccc(C(F)(F)F)cc2)C(Cl)=C1Cl`, the Activity in test [1] was found to be 76.92%; in test [2], 98.2%; in test [3] it was 92.21%.

Regarding `O=C1O/C(=C\c2cccc(Cl)c2)C(Cl)=C1Cl`, the Activity in test [1] was 62.17%; in test [2], 99.86%; in test [3] it was 86.08%.

Take `COc1ccc(C)cc1C1=C(Br)C(=O)N(CC(C)C)/C1=C\c1ccccc1Cl`: the Activity turned out to be 77.02% in test [1], 20.46% in test [2] and 61.86% in test [3].

Turning to `O=C1O/C(=C\c2ccc(O)c(Br)c2)C(c2ccc(O)c(Br)c2)=C1Cl`, the EC50 in test [8] was determined as 1.2 µg/mL (≈ 2.54 µM).

For the molecule `COc1ccc(C)cc1C1=C(Br)C(=O)N(CC(C)C)C1(O)Cc1ccccc1Cl` (stereo unspecified), the results for the Activity in test [1], in test [2] and in test [3] were 78.5%, 44.39% and 63.57%, respectively.
